Measurements from patent US20080213813A1, “Histone deacetylase inhibitor and use thereof” (priority 2002, published 2008).

Legend:
Type in all cases: cell-based, human
[1] = system: HeLa cells; assay: Microtubule stability against Colcemid in HeLa cells (immunofluorescence); conditions: pretreated (1 μM 16 hours, or 200 nM oligonucleotide 24 hours), then 1 μM Colcemid 15 minutes, FIG. 11
Procedure: (3) the introduction of HDAC6 antisense oligonucleotide No. 16 at a final concentration of 200 nM with OligofectAMINE followed by a 24-hour culture.
Then, Lab-TekII Chambered Coverglass was washed with 0.1 M PIPES (pH 6.9), the cells were fixed in 0.5% glutaraldehyde/0.1 PIPES (pH 6.9) for 10 minutes, washed three times with PBS, permealized three times with 0.5% Triton X100/PBS for 5 minutes each, washed three times with PBS, treated three times with 2.5 mg/ml sodium borohydride/50% ethanol for 10 minutes each, washed three times with PBS, blocked with 10% normal goat serum/PBS, reacted with a primary antibody rat anti-α-tubulin monoclonal antibody (MAB1864; CHEMICON)/PBS for 1 hour, washed three times with 0.1% Tween 20/PBS, reacted with a second antibody Alexa Fluor 488-conjugated anti-rat IgG (Molecular Probe)/PBS for 30 minutes, and washed three times with 0.1% Tween 20/PBS, and then examined under a conforcal laser scanning microscope (Carl Zeiss).

[2] = system: HeLa cells; assay: Changes in microtubule structure in HeLa cells (immunofluorescence, confocal microscopy); conditions: FIG. 5
Procedure: HeLa cells were plated on the Lab-TekII Chambered Coverglass (Nunc), and were subjected to:
(1) treatment for 16 hours with 1 μM Paclitaxel (Sigma), a microtubule polymerizing agent;
(3) the introduction of HDAC6 antisense oligonucleotide No. 4 at a final concentration of 200 nM with OligofectAMINE followed by a 24-hour culture.
Then, Lab-TekII Chambered Coverglass was washed with 0.1 M PIPES (pH 6.9), the cells were fixed in 0.5% glutaraldehyde/0.1 M PIPES (pH 6.9) for 10 minutes, washed three times with PBS, permealized three times with 0.5% Triton X100/PBS for 5 minutes each, washed three times with PBS, treated three times with 2.5 mg/ml sodium borohydride/50% ethanol for 10 minutes each, washed three times with PBS, blocked with 10% normal goat serum/PBS, reacted with a primary antibody (a) anti-acetylated α-tubulin antibody (clone 6-11B-1, Sigma) or (b) anti-α-tubulin antibody (clone DM lA, Sigma)/PBS for 1 hour, washed three times with 0.1% Tween 20/PBS, reacted with a second antibody Alexa Fluor 488-conjugated anti-mouse IgG (Molecular Probe)/PBS for 30 minutes, and washed three times with 0.1% Tween 20/PBS, and then examined under a conforcal laser scanning microscope (Carl Zeiss).

[3] = system: acetylated α-tubulin; assay: Acetylation of α-tubulin in HeLa cells (Western blot); conditions: 200 nM, 24, 30, 36 and 48 hours, FIG. 4
Procedure: The each synthesized antisense oligonucleotide was dissolved in sterile water, and was introduced into HeLa cells using the OligofectAMINE (Invitrogen) according to an attached protocol. The 1.5×10^5 HeLa cells were plated in a 6-well plate, the final concentration of antisense oligonucleotide was set at 200 nM, and OligofectAMINE was used at 3 μl/well.
[…] After the cells were lysed with a SDS-PAGE sample buffer (BPB-free) and protein concentration was determined, the cell lysate at 25 μg/lane was separated by SDS-PAGE, transferred to a PVDF membrane, and immunoblotted with anti-acetylated α-tubulin antibody (clone 6-11B-1, Sigma), anti-α-tubulin antibody (clone DMlA, Sigma) or anti-HDAC6 antibody (H-300, Santa Cruz).

[4] = system: HDAC6; assay: Suppression of HDAC6 protein expression in HeLa cells (Western blot); conditions: for production of HDAC6, changing treatment time: 200 nM, 24, 30, 36 and 48 hours, FIG. 4
[5] = system: HeLa cells; assay: Induction of apoptosis in HeLa cells (Annexin V-PE, FACS); conditions: 200 nM, 24 to 48 hours, FIG. 6
Procedure: (§1) HeLa cells (1.5×10^5/well) were plated into a 6-well plate with MEM medium containing 10% FCS and 1× nonessential amino acids. HDAC6 antisense oligonucleotide No. 4, 5, 6 or 16 at the final concentration of 200 nM or the control oligonucleotide was introduced into the cells with OligofectAMINE at 3 μl/well, and the cells were treated for 24 hours, 30 hours, 36 hours, or 48 hours. The cells were detached by trypsin treatment and collected, and stained with Annexin V-PE (Becton Dickinson) according to a protocol attached, and analyzed using the FACS caliber (Becton Dickinson).
Thus, the collected cells were washed with PBS, suspended in 100 μl of the binding buffer (Becton Dickinson), to which suspension 5 μl of Annexin V-PE was added and incubated for 15 minutes, and the binding buffer was added to make a total volume of 500 μl. This was subjected to FACS analysis.

[6] = system: HeLa cells; assay: Depolarization of mitochondrial membrane potential in HeLa cells (JC-1, FACS); conditions: 200 nM, 24, 36 or 48 hours, FIG. 7
Procedure: as §1, with “5” for “5, 6”, “hours,” for “hours, 30 hours,”, “hours” for “hours,”, “Mitochondrial potential sensor JC-1 (Molecular Probes) was added to the medium at the final concentration of 10 μg/ml and the cells were further caltivated at 37° C. for 10 minutes. Ten minutes later, the” for “The”, “and” for “and stained with Annexin V-PE (Becton Dickinson) according to a protocol attached, and”
Therefore, in order to detect the cells in which mitochondrial membrane potential is depolarized, the ratio of green fluorescence-positive cells was graphically shown and used as an index of apoptosis.

[7] = system: HDAC6; assay: Suppression of HDAC6 protein expression in HepG2, SW480, LoVo and Calu-1 cells (Western blot); conditions: HepG2, SW480, LoVo, Calu-1 cells; 200 nM, 48 hours; FIG. 8

CC(/C=C/C(=O)NO)=C\[C@@H](C)C(=O)c1ccc(N(C)C)cc1 [Trichostatin A]
microtubules after Colcemid in pretreated cells [1]: the remaining of the polymerized microtubules was observed | microtubule structure ([2]; 1 μM Trichostatin A 16 hours or 200 nM antisense oligonucleotide 24 hours): images of polymerized microtubules were observed throughout the cytoplasm

antisense oligonucleotide 6: phosphorothioated HDAC6 antisense oligonucleotide TTTATTACAT ATGCAACCTT, upstream sequence comprising the polyadenylation signal; used as negative control (antisense TTTATTACATATGCAACCTT; all phosphorothioate, sugars by position and methylation of C not given here)
acetylation of α-tubulin, changing treatment time [3]: enhances the acetylation of α-tubulin | production of HDAC6, changing treatment time [4]: inhibits the production of HDAC6

CC(=O)O[C@H]1C(=O)[C@@]2(C)[C@H]([C@H](OC(=O)c3ccccc3)[C@]3(O)C[C@H](OC(=O)[C@H](O)[C@@H](NC(=O)c4ccccc4)c4ccccc4)C(C)=C1C3(C)C)[C@]1(OC(C)=O)CO[C@@H]1C[C@@H]2O [Paclitaxel]
microtubules after Colcemid in pretreated cells [1]: the remaining of the polymerized microtubules was observed | microtubule structure, stained with anti-acetylated α-tubulin antibody ([2]; 1 μM, 16 hours): hyperpolymerized microtubules from the centromere were observed | microtubule structure, stained with anti-α-tubulin antibody ([2]; 1 μM, 16 hours): hyperpolymerized microtubules were observed in the periphery of the nucleus

antisense oligonucleotide 5: phosphorothioated HDAC6 antisense oligonucleotide GCTGCCTGGT TGTGGTGGAA, complementary to a sequence downstream of ATG (antisense GCTGCCTGGTTGTGGTGGAA; all phosphorothioate, sugars by position and methylation of C not given here)
acetylation of α-tubulin, changing treatment time [3]: the acetylation of α-tubulin was enhanced at any time | production of HDAC6, changing treatment time [4]: inhibits the production of HDAC6 | apoptosis judged by Annexin V positivity [5]: induces apoptosis | mitochondrial depolarization judged by JC-1 staining [6]: induces mitochondrial depolarization

control oligo: control oligonucleotide CCTCTTACCT CAGTTACAAT, from abnormal splicing site 705 of β globin pre-mRNA; no specific target in normal cells (antisense CCTCTTACCTCAGTTACAAT; all phosphorothioate, sugars by position and methylation of C not given here)
amount of expressed HDAC6 [7]: did not have any activity of causing the reduction of HDAC6 protein expression | amount of expressed HDAC6 protein ([4]; 200 nM oligonucleotide, 48 hours after introduction, FIG. 3): did not have any activity of causing the reduction of HDAC6 protein expression
